Laboratory results from ChEMBL document CHEMBL1201862, “PubChem BioAssay data set” (2004).
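Values below derive from 48-hour exposures of cells grown in 96-well plates, with endpoints linearly interpolated between the two concentrations bracketing the appropriate inhibition level. Abbreviation: GI50, concentration required for 50% inhibition of growth.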 Activity calls are given as the source filed them. Rule as the data show it: active = GI50 up to about 1.1 µM and inactive = higher.

Tests used:
Experiment in all cases: NCI-60 cell line screen, 48 h
[1] = tested on: 786-0
[2] = tested on: A498
[3] = tested on: ACHN
[4] = tested on: CAKI-1
[5] = tested on: EKVX
[6] = tested on: HL-60
[7] = tested on: MDA-MB-435
[8] = tested on: MDA-N
[9] = tested on: Malme-3M
[10] = tested on: NCI-H226
[11] = tested on: NCI/ADR-RES
[12] = tested on: OVCAR-8
[13] = tested on: SF-268
[14] = tested on: SN12C
[15] = tested on: SNB-75
[16] = tested on: T47D
[17] = tested on: UACC-257
[18] = tested on: UACC-62
[19] = tested on: UO-31

Measured: GI50

COc1cccc(C2c3cc4c(cc3OC(C)(N3CCCC3)C2C)OCO4)c1O (stereo unspecified)
inactive: [1] 4.71 µM | [2] 6.4 µM | [3] 11.3 µM | [4] 5.83 µM | [5] 7.91 µM | [6] 2.71 µM | [7] 1.63 µM | [8] 1.93 µM | [9] 3.89 µM | [10] 4.49 µM | [11] 2.72 µM | [12] 7.87 µM | [13] 8.22 µM | [14] 6.58 µM | [15] 2.3 µM | [16] 12.1 µM | [17] 5.05 µM | [18] 4.6 µM | [19] 10.9 µM

CC(C)(C)OC(=O)NC(CS(=O)(=O)O)C(=O)O (stereo unspecified)
inactive: [1] > 100 µM | [2] > 100 µM | [3] > 100 µM | [4] > 100 µM | [5] > 100 µM | [6] > 100 µM | [7] > 100 µM | [8] > 100 µM | [9] > 100 µM | [10] > 100 µM | [11] > 100 µM | [12] > 100 µM | [13] > 100 µM | [14] > 100 µM | [15] > 100 µM | [16] > 100 µM | [17] > 100 µM | [18] > 100 µM | [19] > 100 µM

O=S(=O)(O)c1ccc2cc(/N=N/c3c(O)ccc4ccccc34)ccc2c1
inactive: [1] > 100 µM | [2] > 100 µM | [3] > 100 µM | [4] > 100 µM | [5] > 100 µM | [6] > 100 µM | [7] > 100 µM | [8] > 100 µM | [9] 82.6 µM | [10] > 100 µM | [11] > 100 µM | [12] > 100 µM | [13] > 100 µM | [14] > 100 µM | [15] > 100 µM | [16] > 100 µM | [17] > 100 µM | [18] > 100 µM | [19] > 100 µM

Cc1cccc(Nc2cnc(N)nc2N)c1
inactive: [1] > 100 µM | [2] > 100 µM | [3] > 100 µM | [4] > 100 µM | [5] > 100 µM | [6] > 100 µM | [7] > 100 µM | [8] > 100 µM | [9] > 100 µM | [10] > 100 µM | [11] > 100 µM | [12] > 100 µM | [14] > 100 µM | [15] 83 µM | [16] > 100 µM | [17] > 100 µM | [18] > 100 µM | [19] 90.2 µM

COc1cnnc2c(C)c(-c3ccccc3)nn12
inactive: [1] > 84.9 µM | [2] 29.2 µM | [3] 68.9 µM | [4] 57 µM | [5] > 100 µM | [6] > 100 µM | [7] 77.4 µM | [8] 60.5 µM | [9] 39.6 µM | [10] > 100 µM | [11] > 100 µM | [12] > 100 µM | [13] 82.4 µM | [14] 30.1 µM | [15] 20 µM | [16] 2.6 µM | [17] > 90.8 µM | [18] 42.4 µM | [19] 32.5 µM

CN1c2ccc(O)c(O)c2-c2cc(O)cc3c2C1CCC3 (stereo unspecified)
inactive: [1] 15.2 µM | [2] > 76.2 µM | [3] 16.7 µM | [4] 20.3 µM | [5] 20.7 µM | [6] 14.6 µM | [7] 15.6 µM | [8] 16.9 µM | [9] 15.9 µM | [10] 27.9 µM | [11] 18 µM | [12] 19.1 µM | [13] 14.2 µM | [14] 17.5 µM | [15] 16.3 µM | [16] 15.9 µM | [17] 19.1 µM | [18] 16.3 µM | [19] 13.6 µM

Cc1c(C)c(C)c(-n2c(=O)n(C)c(=O)n2-n2c(=O)n(C)c(=O)n2-c2c(C)c(C)c(C)c(C)c2C)c(C)c1C
inactive: [1] > 100 µM | [2] > 100 µM | [4] > 100 µM | [5] > 100 µM | [6] 12.1 µM | [7] > 100 µM | [8] > 100 µM | [9] > 100 µM | [10] 37.8 µM | [11] 61.2 µM | [12] > 100 µM | [13] > 100 µM | [14] > 100 µM | [15] > 100 µM | [16] > 100 µM | [17] > 100 µM | [18] > 100 µM | [19] > 100 µM

O=C(N/N=C\c1cccc2c([N+](=O)[O-])cccc12)Nc1ccccc1
inactive: [1] 16.6 µM | [2] 16.5 µM | [3] 14.2 µM | [4] 12.5 µM | [5] 15.5 µM | [6] 14.7 µM | [7] 9.29 µM | [8] 13.1 µM | [9] 14.1 µM | [10] 13.6 µM | [11] 12.4 µM | [12] 12 µM | [13] 21.6 µM | [14] 4.59 µM | [15] 22.3 µM | [16] 6.04 µM | [17] 19.5 µM | [18] 10.4 µM | [19] 13.2 µM

OC(C1=C/C(=C\c2ccncc2)c2ccccc21)c1ccncc1 (stereo unspecified)
inactive: [1] 12.9 µM | [2] 12.9 µM | [3] 14.8 µM | [4] 7.83 µM | [5] 5.65 µM | [6] 1.66 µM | [7] 12 µM | [8] 10.8 µM | [9] 15.1 µM | [10] 13.6 µM | [11] 14.6 µM | [12] 22.2 µM | [13] 18.5 µM | [14] 13.9 µM | [15] 5.85 µM | [16] 4.38 µM | [17] 6.34 µM | [18] 9.16 µM | [19] 8.99 µM

COc1ccc(C2NC(=S)Nc3c2c(=O)oc2c3ccc3ccccc32)cc1 (stereo unspecified)
inactive: [1] 80.7 µM | [2] 38.9 µM | [3] 67.6 µM | [4] 58.3 µM | [5] 27.4 µM | [6] 92.3 µM | [7] 86.3 µM | [8] 76.9 µM | [9] > 100 µM | [10] 32.2 µM | [11] 81.5 µM | [12] 92.3 µM | [13] > 100 µM | [14] 88.5 µM | [15] 33.7 µM | [16] 50.6 µM | [17] > 100 µM | [18] 45.7 µM | [19] 77.1 µM

CCN(CC)CCn1c2cc3c(cc2c(=O)c2cccnc21)OCO3
inactive: [1] 4.45 µM | [2] 3.91 µM | [3] 3.52 µM | [4] 9.14 µM | [5] 5.14 µM | [6] 4.58 µM | [7] 4.71 µM | [8] 8.93 µM | [9] 4.84 µM | [10] 5.01 µM | [11] 4.93 µM | [12] 4.62 µM | [13] 6.71 µM | [14] 6.4 µM | [15] 3.83 µM | [16] > 10 µM | [17] 6.1 µM | [18] 8.75 µM
